How the values were obtained:
Format in all cases: biochemical
JAK1 = JAK1 (Homo sapiens (Human), UniProt P23458); experiment: JAK/TYK2 assay (Kinase Glo luminescence), JAK1; conditions: 7.5 nM enzyme, 2 uM ATP, 30 uM IRS-1, 1 hr
Experimental: (§1) 10 mM test compound stock or 1 mM control compound stock (tofocitinib, ruxolitinib or staurosporine) in DMSO was diluted to 0.4 mM in DMSO. A 3-fold series dilution was then performed in DMSO to generate 10 different compound concentrations. The assay was carried out in 384-well white plate. 0.5 uL of 40× compound DMSO solution at different concentrations was mixed with 10 uL 2× enzyme prepared in reaction buffer (20 mM HEPES, 10 mM MgCl2, 0.01% Tween, 1 mM DTT, pH 7.5). 10 uL 2× substrate mixture prepared in reaction buffer was then added to start the reaction. A short spin was done to settle down all solutions to the bottom of the plate. Final concentrations of test compound in the reaction mixture were 10000, 3333, 1111, 370, 123, 41.2, 13.7, 4.57, 1.52and 0.51 nM. Concentrations of control compound were ten times less. Enzymatic reaction was conducted at 25° C. for 1-2 hours. 10 uL of Kinase Glo Reagents was added to stop the reaction and generate the luminescent signal which was measured using Envision. Luminescence signal was inversely related to kinase activity. […] The mixture without any compound was the positive control.

JAK2 = JAK2 (Homo sapiens (Human), UniProt O60674); experiment: JAK/TYK2 assay (Kinase Glo luminescence), JAK2; conditions: 0.8 nM enzyme, 2 uM ATP, 4 uM pEY, 1 hr
Experimental: as §1

JAK3 = JAK3 (Homo sapiens (Human), UniProt P52333); experiment: JAK/TYK2 assay (Kinase Glo luminescence), JAK3; conditions: 1.5 nM enzyme, 2 uM ATP, 4 uM pEY, 1 hr
Experimental: as §1

TYK2 = TYK2 (Homo sapiens (Human), UniProt P29597); experiment: JAK/TYK2 assay (Kinase Glo luminescence), TYK2; conditions: 9 nM enzyme, 2 uM ATP, 30 uM IRS-1, 1 hr
Experimental: as §1

Sequence of JAK2 (O60674 whole entry, species assumed): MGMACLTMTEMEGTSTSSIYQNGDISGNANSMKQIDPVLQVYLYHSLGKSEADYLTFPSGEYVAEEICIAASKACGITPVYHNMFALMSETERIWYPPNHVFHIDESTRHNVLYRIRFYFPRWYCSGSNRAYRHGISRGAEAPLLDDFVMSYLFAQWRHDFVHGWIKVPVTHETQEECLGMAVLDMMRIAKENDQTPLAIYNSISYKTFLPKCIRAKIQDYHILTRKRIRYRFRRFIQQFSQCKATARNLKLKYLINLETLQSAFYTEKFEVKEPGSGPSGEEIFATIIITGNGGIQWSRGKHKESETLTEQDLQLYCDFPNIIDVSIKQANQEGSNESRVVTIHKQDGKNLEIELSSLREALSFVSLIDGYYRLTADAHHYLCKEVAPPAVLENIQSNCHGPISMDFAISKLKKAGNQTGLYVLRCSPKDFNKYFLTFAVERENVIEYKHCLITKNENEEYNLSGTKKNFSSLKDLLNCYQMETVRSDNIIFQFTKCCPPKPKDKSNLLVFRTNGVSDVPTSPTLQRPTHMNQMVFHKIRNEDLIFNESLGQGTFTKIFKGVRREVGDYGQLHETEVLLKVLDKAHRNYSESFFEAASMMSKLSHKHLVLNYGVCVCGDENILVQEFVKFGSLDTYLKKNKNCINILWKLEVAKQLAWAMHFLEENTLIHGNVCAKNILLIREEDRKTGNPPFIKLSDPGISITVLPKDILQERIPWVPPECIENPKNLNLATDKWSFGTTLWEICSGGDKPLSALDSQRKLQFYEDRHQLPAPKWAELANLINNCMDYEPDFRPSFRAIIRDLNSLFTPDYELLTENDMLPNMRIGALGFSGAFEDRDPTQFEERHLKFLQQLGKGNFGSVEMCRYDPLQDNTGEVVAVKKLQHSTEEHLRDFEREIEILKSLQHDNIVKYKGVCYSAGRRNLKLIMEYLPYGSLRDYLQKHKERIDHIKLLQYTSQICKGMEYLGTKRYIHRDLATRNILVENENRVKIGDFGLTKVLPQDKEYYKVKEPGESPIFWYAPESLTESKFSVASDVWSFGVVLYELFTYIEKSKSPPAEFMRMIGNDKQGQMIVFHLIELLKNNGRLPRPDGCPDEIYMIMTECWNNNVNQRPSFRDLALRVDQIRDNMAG
Sequence of JAK1 (P23458 whole entry, species assumed): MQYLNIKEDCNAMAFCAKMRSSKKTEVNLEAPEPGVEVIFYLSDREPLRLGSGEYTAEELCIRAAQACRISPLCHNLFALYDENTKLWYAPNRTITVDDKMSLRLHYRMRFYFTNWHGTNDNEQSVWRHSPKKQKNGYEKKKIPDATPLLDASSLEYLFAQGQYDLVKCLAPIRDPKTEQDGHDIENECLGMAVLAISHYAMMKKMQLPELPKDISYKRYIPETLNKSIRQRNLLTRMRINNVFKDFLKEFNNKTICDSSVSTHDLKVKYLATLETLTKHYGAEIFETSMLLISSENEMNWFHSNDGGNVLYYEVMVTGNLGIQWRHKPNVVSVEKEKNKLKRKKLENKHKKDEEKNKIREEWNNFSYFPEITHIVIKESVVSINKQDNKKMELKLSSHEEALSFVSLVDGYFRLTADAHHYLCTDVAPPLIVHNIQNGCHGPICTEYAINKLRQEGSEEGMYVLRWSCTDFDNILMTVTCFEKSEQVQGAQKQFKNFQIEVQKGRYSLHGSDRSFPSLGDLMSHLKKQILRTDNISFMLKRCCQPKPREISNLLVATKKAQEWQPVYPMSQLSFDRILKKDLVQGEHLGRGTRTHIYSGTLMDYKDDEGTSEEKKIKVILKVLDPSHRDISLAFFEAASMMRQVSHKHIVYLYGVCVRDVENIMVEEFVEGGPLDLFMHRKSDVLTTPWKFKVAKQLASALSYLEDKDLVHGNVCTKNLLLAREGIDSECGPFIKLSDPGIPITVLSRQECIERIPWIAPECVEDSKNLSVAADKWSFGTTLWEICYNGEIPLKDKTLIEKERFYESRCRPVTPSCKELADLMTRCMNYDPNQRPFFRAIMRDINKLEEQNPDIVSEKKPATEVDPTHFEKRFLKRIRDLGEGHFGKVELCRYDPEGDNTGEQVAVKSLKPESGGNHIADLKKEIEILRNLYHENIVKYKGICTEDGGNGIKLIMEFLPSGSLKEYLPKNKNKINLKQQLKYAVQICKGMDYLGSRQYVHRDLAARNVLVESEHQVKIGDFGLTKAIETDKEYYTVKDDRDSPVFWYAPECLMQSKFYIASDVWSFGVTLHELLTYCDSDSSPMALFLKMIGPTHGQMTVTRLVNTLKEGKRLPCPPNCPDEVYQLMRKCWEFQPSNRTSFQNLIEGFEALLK
Sequence of JAK3 (P52333 whole entry, species assumed): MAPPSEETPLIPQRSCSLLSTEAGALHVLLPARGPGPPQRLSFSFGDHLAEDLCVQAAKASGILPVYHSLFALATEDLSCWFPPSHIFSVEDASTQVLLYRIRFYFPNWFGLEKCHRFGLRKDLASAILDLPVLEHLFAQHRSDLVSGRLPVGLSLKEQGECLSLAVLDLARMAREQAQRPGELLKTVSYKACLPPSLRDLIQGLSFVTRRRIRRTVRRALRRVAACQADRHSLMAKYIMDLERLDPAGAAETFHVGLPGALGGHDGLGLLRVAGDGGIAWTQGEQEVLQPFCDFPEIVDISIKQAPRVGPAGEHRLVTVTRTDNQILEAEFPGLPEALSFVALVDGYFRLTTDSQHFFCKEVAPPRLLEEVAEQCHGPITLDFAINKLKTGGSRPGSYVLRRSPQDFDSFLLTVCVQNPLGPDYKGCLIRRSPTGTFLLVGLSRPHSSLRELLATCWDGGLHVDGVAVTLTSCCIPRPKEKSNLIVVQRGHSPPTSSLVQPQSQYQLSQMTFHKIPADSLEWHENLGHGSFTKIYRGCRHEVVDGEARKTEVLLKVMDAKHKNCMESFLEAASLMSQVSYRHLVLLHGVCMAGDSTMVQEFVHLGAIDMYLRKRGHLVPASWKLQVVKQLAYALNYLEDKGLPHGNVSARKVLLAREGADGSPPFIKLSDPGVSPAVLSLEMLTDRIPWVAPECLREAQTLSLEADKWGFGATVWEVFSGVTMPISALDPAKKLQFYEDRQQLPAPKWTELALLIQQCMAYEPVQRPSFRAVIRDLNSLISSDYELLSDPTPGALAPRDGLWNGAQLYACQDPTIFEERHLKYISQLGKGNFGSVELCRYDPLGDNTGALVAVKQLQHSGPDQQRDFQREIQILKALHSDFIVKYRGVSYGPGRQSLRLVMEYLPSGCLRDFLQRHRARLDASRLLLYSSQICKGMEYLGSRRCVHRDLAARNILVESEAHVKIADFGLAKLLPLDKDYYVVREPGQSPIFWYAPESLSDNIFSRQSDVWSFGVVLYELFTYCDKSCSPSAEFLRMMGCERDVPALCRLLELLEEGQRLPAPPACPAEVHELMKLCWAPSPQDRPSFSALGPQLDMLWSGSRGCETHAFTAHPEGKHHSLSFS
Sequence of TYK2 (P29597 whole entry, species assumed): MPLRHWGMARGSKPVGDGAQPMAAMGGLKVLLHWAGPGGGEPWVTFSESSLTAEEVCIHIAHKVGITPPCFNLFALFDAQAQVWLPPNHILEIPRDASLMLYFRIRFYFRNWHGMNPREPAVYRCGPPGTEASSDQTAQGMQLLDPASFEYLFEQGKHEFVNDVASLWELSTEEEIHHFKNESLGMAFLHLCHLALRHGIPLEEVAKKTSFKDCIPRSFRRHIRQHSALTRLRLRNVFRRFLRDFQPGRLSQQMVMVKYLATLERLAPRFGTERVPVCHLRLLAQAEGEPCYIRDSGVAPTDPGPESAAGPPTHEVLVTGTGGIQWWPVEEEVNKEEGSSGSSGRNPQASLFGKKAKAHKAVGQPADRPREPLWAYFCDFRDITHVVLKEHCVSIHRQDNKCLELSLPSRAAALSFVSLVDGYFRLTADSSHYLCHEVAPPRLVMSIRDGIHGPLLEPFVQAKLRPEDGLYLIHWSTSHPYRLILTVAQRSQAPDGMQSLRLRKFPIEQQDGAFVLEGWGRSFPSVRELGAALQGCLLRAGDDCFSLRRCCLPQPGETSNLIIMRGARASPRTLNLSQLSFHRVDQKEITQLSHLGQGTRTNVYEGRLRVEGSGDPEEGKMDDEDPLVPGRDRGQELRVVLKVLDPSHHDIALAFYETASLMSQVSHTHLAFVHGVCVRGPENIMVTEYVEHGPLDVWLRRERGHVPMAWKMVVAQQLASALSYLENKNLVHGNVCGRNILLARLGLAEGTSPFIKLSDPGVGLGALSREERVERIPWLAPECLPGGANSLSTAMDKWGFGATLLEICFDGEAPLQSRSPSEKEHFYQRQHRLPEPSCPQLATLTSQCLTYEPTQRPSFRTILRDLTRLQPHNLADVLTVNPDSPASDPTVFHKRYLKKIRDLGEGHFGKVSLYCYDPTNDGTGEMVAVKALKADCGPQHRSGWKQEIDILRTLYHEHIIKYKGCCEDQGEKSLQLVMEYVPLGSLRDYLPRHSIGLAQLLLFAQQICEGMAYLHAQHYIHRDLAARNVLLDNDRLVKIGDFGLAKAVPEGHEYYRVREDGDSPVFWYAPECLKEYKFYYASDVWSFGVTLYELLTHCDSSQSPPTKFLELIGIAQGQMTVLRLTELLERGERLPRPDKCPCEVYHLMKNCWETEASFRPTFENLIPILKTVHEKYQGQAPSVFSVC

In the case of CCOC(=O)Cn1cc(Nc2ncc3ccn(CC(CC)CC)c3n2)cn1 [Compound 8, ethyl 2-(4-((7-(2-ethylbutyl)-7H-pyrrolo[2,3-d]pyrimidin-2-yl)amino)-1H-pyrazol-1-yl)acetate], the IC50 (JAK1) is reported as < 100 nM, the IC50 (JAK2) is reported as < 100 nM and the IC50 (JAK3) is reported as < 100 nM. For the same compound, the IC50 (TYK2) was < 100 nM.
For CCC(CC)Cn1ccc2cnc(Nc3cnn(CC(=O)O)c3)nc21 [Compound 9, 2-(4-((7-(2-ethylbutyl)-7H-pyrrolo[2,3-d]pyrimidin-2-yl)amino)-1H-pyrazol-1-yl)acetic acid], the IC50 (JAK1) was < 100 nM, the IC50 (JAK2) was < 100 nM and the IC50 (JAK3) was < 100 nM. The IC50 (TYK2) was < 100 nM.
In the case of CCOC(=O)Cn1cc(Nc2ncc3ccn(Cc4ccsc4)c3n2)cn1 [Compound 10, ethyl 2-(4-((7-(thiophen-3-ylmethyl)-7H-pyrrolo[2,3-d]pyrimidin-2-yl)amino)-1H-pyrazol-1-yl)acetate], the IC50 (JAK1) is reported as < 100 nM, the IC50 (JAK2) is reported as < 100 nM and the IC50 (JAK3) is reported as < 100 nM. The IC50 (TYK2) was < 100 nM.
O=C(O)Cn1cc(Nc2ncc3ccn(Cc4ccsc4)c3n2)cn1 [Compound 11, 2-(4-((7-(thiophen-3-ylmethyl)-7H-pyrrolo[2,3-d]pyrimidin-2-yl)amino)-1H-pyrazol-1-yl)acetic acid] was tested, and the IC50 (JAK1) was 100 to 1000 nM, the IC50 (JAK2) was < 100 nM and the IC50 (JAK3) was < 100 nM. The IC50 (TYK2) was < 100 nM.
CCOC(=O)c1ccc(Nc2ncc3ccn(Cc4ccsc4)c3n2)cc1 [Compound 12, ethyl 4-((7-(thiophen-3-ylmethyl)-7H-pyrrolo[2,3-d]pyrimidin-2-yl)amino)benzoate] showed an IC50 (JAK3) of 100 to 1000 nM.
For CCOC(=O)Cn1cc(Nc2ncc3ccn(CC4CCCCC4)c3n2)cn1 [Compound 13, ethyl 2-(4-((7-(cyclohexylmethyl)-7H-pyrrolo[2,3-d]pyrimidin-2-yl)amino)-1H-pyrazol-1-yl)acetate], the IC50 (JAK1) was < 100 nM, the IC50 (JAK2) was < 100 nM and the IC50 (JAK3) was < 100 nM. The IC50 (TYK2) was < 100 nM.
With CCOC(=O)Cn1cc(Nc2ncc3ccn(CC4CCC4)c3n2)cn1 [Compound 14, ethyl 2-(4-((7-(cyclobutylmethyl)-7H-pyrrolo[2,3-d]pyrimidin-2-yl)amino)-1H-pyrazol-1-yl)acetate] the IC50 (JAK3) was < 100 nM.
With O=C(O)Cn1cc(Nc2ncc3ccn(CC4CCCCC4)c3n2)cn1 [Compound 15, 2-(4-((7-(cyclohexylmethyl)-7H-pyrrolo[2,3-d]pyrimidin-2-yl)amino)-1H-pyrazol-1-yl)acetic acid] the IC50 (JAK1) was < 100 nM, the IC50 (JAK2) was < 100 nM and the IC50 (JAK3) was < 100 nM. The IC50 (TYK2) was < 100 nM.
CCOC(=O)CCn1cc(Nc2ncc3ccn(Cc4ccsc4)c3n2)cn1 [Compound 16, ethyl 3-(4-((7-(thiophen-3-ylmethyl)-7H-pyrrolo[2,3-d]pyrimidin-2-yl)amino)-1H-pyrazol-1-yl)propanoate] was tested, and the IC50 (JAK1) was 100 to 1000 nM, the IC50 (JAK2) was < 100 nM and the IC50 (JAK3) was < 100 nM. The IC50 (TYK2) was < 100 nM.
In the case of CCOC(=O)Cn1cc(Nc2ncc3ccn(CC4CCCC4)c3n2)cn1 [Compound 17, ethyl 2-(4-((7-(cyclopentylmethyl)-7H-pyrrolo[2,3-d]pyrimidin-2-yl)amino)-1H-pyrazol-1-yl)acetate], the IC50 (JAK1) is reported as < 100 nM, the IC50 (JAK2) is reported as < 100 nM and the IC50 (JAK3) is reported as < 100 nM. The IC50 (TYK2) was < 100 nM.
For CCOC(=O)Cn1cc(Nc2ncc3ccn(CCC4CCCCC4)c3n2)cn1 [Compound 18, ethyl 2-(4-((7-(2-cyclohexylethyl)-7H-pyrrolo[2,3-d]pyrimidin-2-yl)amino)-1H-pyrazol-1-yl)acetate], the IC50 (JAK1) was > 10000 nM, the IC50 (JAK2) was 100 to 1000 nM and the IC50 (JAK3) was < 100 nM. For the same compound, the IC50 (TYK2) was < 100 nM.
In the case of O=C(O)CCn1cc(Nc2ncc3ccn(Cc4ccsc4)c3n2)cn1 [Compound 19, 3-(4-((7-(thiophen-3-ylmethyl)-7H-pyrrolo[2,3-d]pyrimidin-2-yl)amino)-1H-pyrazol-1-yl)propanoic acid], the IC50 (JAK1) is reported as < 100 nM, the IC50 (JAK2) is reported as < 100 nM and the IC50 (JAK3) is reported as < 100 nM. For the same compound, the IC50 (TYK2) was < 100 nM.
In the case of CCOC(=O)Cn1cc(Nc2ncc3ccn(CC(C)(C)C)c3n2)cn1 [Compound 20, ethyl 2-(4-((7-neopentyl-7H-pyrrolo[2,3-d]pyrimidin-2-yl)amino)-1H-pyrazol-1-yl)acetate], the IC50 (JAK1) is reported as 100 to 1000 nM, the IC50 (JAK2) is reported as 100 to 1000 nM and the IC50 (JAK3) is reported as < 100 nM. For the same compound, the IC50 (TYK2) was < 100 nM.
In the case of CCOC(=O)Cn1cc(Nc2ncc3ccn(CCC(C)C)c3n2)cn1 [Compound 21, ethyl 2-(4-((7-isopentyl-7H-pyrrolo[2,3-d]pyrimidin-2-yl)amino)-1H-pyrazol-1-yl)acetate], the IC50 (JAK1) is reported as < 100 nM, the IC50 (JAK2) is reported as < 100 nM and the IC50 (JAK3) is reported as < 100 nM. The IC50 (TYK2) was < 100 nM.
For CCOC(=O)Cn1cc(Nc2ncc3ccn(CC=C(C)C)c3n2)cn1 [Compound 22, ethyl 2-(4-((7-(3-methylbut-2-en-1-yl)-7H-pyrrolo[2,3-d]pyrimidin-2-yl)amino)-1H-pyrazol-1-yl)acetate], the IC50 (JAK1) was 100 to 1000 nM, the IC50 (JAK2) was < 100 nM and the IC50 (JAK3) was < 100 nM. For the same compound, the IC50 (TYK2) was < 100 nM.
In the case of CC#CCn1ccc2cnc(Nc3cnn(CC(=O)OCC)c3)nc21 [Compound 23, ethyl 2-(4-((7-(but-2-yn-1-yl)-7H-pyrrolo[2,3-d]pyrimidin-2-yl)amino)-1H-pyrazol-1-yl)acetate], the IC50 (JAK1) is reported as 100 to 1000 nM, the IC50 (JAK2) is reported as 100 to 1000 nM and the IC50 (JAK3) is reported as < 100 nM. The IC50 (TYK2) was 100 to 1000 nM.
CCOC(=O)Cn1cc(Nc2ncc3ccn(CCC#N)c3n2)cn1 [Compound 24, ethyl 2-(4-((7-(2-cyanoethyl)-7H-pyrrolo[2,3-d]pyrimidin-2-yl)amino)-1H-pyrazol-1-yl)acetate] showed an IC50 (JAK1) of 1000 to 10000 nM, an IC50 (JAK2) of 100 to 1000 nM and an IC50 (JAK3) of 100 to 1000 nM. The IC50 (TYK2) was 100 to 1000 nM.
CCOC(=O)Cn1cc(Nc2ncc3ccn(CC4CC4)c3n2)cn1 [Compound 25, ethyl 2-(4-((7-(cyclopropylmethyl)-7H-pyrrolo[2,3-d]pyrimidin-2-yl)amino)-1H-pyrazol-1-yl)acetate] was tested, and the IC50 (JAK3) was < 100 nM.
CCOC(=O)c1ccc(Nc2ncc3ccn(CC(CC)CC)c3n2)cc1 [Compound 26, ethyl 4-((7-(2-ethylbutyl)-7H-pyrrolo[2,3-d]pyrimidin-2-yl)amino)benzoate] gave an IC50 (JAK1) of 100 to 1000 nM, an IC50 (JAK2) of 100 to 1000 nM and an IC50 (JAK3) of 100 to 1000 nM. For the same compound, the IC50 (TYK2) was 100 to 1000 nM.
With CCOC(=O)C(C)(C)n1cc(Nc2ncc3ccn(CC(CC)CC)c3n2)cn1 [Compound 27, ethyl 2-(4-((7-(2-ethylbutyl)-7H-pyrrolo[2,3-d]pyrimidin-2-yl)amino)-1H-pyrazol-1-yl)-2-methylpropanoate] the IC50 (JAK1) was < 100 nM, the IC50 (JAK2) was < 100 nM and the IC50 (JAK3) was < 100 nM. The IC50 (TYK2) was < 100 nM.
CCOC(=O)C(C)n1cc(Nc2ncc3ccn(CC(CC)CC)c3n2)cn1 (centres unmarked) [Compound 28, ethyl 2-(4-((7-(2-ethylbutyl)-7H-pyrrolo[2,3-d]pyrimidin-2-yl)amino)-1H-pyrazol-1-yl)propanoate] was tested, and the IC50 (JAK1) was < 100 nM, the IC50 (JAK2) was < 100 nM and the IC50 (JAK3) was < 100 nM. The IC50 (TYK2) was < 100 nM.
CCOC(=O)c1nc(Cn2ccc3cnc(Nc4cnn(C)c4)nc32)cs1 [Compound 56] gave an IC50 (JAK1) of 1000 to 10000 nM, an IC50 (JAK2) of 1000 to 10000 nM and an IC50 (JAK3) of 1000 to 10000 nM.
For CCOC(=O)Cn1ccc2cnc(Nc3cnn(C)c3)nc21 [Compound 57, ethyl 2-(2-((1-methyl-1H-pyrazol-4-yl)amino)-7H-pyrrolo[2,3-d]pyrimidin-7-yl)acetate], the IC50 (JAK1) was 1000 to 10000 nM, the IC50 (JAK2) was 100 to 1000 nM and the IC50 (JAK3) was 1000 to 10000 nM.
CCOC(=O)c1ccc(Cn2ccc3cnc(Nc4cnn(C)c4)nc32)s1 [Compound 58, ethyl 5-((2-((1-methyl-1H-pyrazol-4-yl)amino)-7H-pyrrolo[2,3-d]pyrimidin-7-yl)methyl)thiophene-2-carboxylate] gave an IC50 (JAK3) of 1000 to 10000 nM.
With CCOC(=O)Cn1cc(Nc2ncc3c(Cl)cn(CC4CCCCC4)c3n2)cn1 [Compound 60, ethyl 2-(4-((5-chloro-7-(cyclohexylmethyl)-7H-pyrrolo[2,3-d]pyrimidin-2-yl)amino)-1H-pyrazol-1-yl)acetate] the IC50 (JAK3) was < 100 nM.
In the case of C=CC(=O)Nc1cccc(Cn2ccc3cnc(Nc4cnn(CC(=O)OCC)c4)nc32)c1 [Compound 95, ethyl 2-(4-((7-(3-acrylamidobenzyl)-7H-pyrrolo[2,3-d]pyrimidin-2-yl)amino)-1H-pyrazol-1-yl)acetate], the IC50 (JAK1) is reported as 100 to 1000 nM, the IC50 (JAK2) is reported as 100 to 1000 nM and the IC50 (JAK3) is reported as 100 to 1000 nM.
With CCOC(=O)Cn1cc(Nc2ncc3ccn(C[C@H]4CC[C@H](NC)CC4)c3n2)cn1 [Compound 123] the IC50 (JAK1) was 100 to 1000 nM, the IC50 (JAK2) was < 100 nM and the IC50 (TYK2) was < 100 nM.
For CCOC(=O)Cn1cc(Nc2ncc3ccn(CC4CCS(=O)(=O)CC4)c3n2)cn1 [Compound 125, ethyl 2-(4-((7-((1,1-dioxidotetrahydro-2H-thiopyran-4-yl)methyl)-7H-pyrrolo[2,3-d]pyrimidin-2-yl)amino)-1H-pyrazol-1-yl)acetate], the IC50 (JAK1) was 1000 to 10000 nM, the IC50 (JAK2) was 1000 to 10000 nM and the IC50 (TYK2) was 100 to 1000 nM.
In the case of CCOC(=O)Cn1cc(Nc2ncc3ccn(CC4CCSCC4)c3n2)cn1 [Compound 126, ethyl 2-(4-((7-((tetrahydro-2H-thiopyran-4-yl)methyl)-7H-pyrrolo[2,3-d]pyrimidin-2-yl)amino)-1H-pyrazol-1-yl)acetate], the IC50 (JAK1) is reported as 100 to 1000 nM, the IC50 (JAK2) is reported as < 100 nM and the IC50 (TYK2) is reported as < 100 nM.

Reference: patent US11136329B2, “JAK inhibitors” (Vimalan Biosciences, Inc., priority 2019, dated 2021)
